Measured values as given in publication PMC4710668, “Bioactivation of food genotoxicants 5-hydroxymethylfurfural and furfuryl alcohol by sulfotransferases from human, mouse and rat: a comparative study” (Archives of Toxicology, 2014).
Where two headings read alike, the source gives them in different places.

Tests used:
hSULT1A1 = biological target: T1, hSULT1A1 (Homo sapiens, UniProt P50225); conditions: cited from earlier work; for K M of sulfoconjugation: ref Honma et al. [2001]
T1 construct: made in house; host or cells: Salmonella typhimurium TA1538 (cytosolic fraction, not purified)

[1] = set-up: method as in Glatt et al. [2012]; conditions: in water at 37 °C; ref Glatt et al. [2012]; cited from earlier work
[2] = Stability of SMF in solution; type: physicochemical; conditions: solutions containing 75 % 2-propanol at 4 °C, within four weeks
Protocol: The analytical technique used in this study was adapted from the SMF quantification in plasma samples of HMF-treated mice (Monien et al. [2009]). This is beset with two potential sources of inaccuracy. […] Here, we chose a reaction time of 30 min. […] SMF was analyzed by UPLC-MS/MS in the MRM mode using the specific fragmentation reactions of the sulfate ion radical (m/z = 204.9 → 96.0) and the protonated sulfonate ion (m/z = 204.9 → 81.0) (Monien et al. [2009]). Representative chromatograms are shown in Fig. S2 of the Supplementary Material. The SMF levels resulting from HMF sulfoconjugation were quantified using SMF solutions at various concentrations as external calibration line prepared in water/2-propanol (1:3), which represents the solvent composition in the incubation mixture following instant stopping and precipitating of proteins. The second source of imprecision of mass spectrometric SMF quantification with an external calibration is the possible ion suppression by residues from bacterial cytosol or buffer salts in the samples. This was tested in a separate experiment measuring the peak areas of six series of solutions with five different SMF concentrations, either prepared with water or with the contents of the incubation mixture including 1 mg/ml protein from a cytosolic preparation of native S. typhimurium TA1538.

[3] = set-up: method as in Monien et al. [2009]; conditions: ref Monien et al. [2009], cited from earlier work

T1 sequence (P50225 whole entry): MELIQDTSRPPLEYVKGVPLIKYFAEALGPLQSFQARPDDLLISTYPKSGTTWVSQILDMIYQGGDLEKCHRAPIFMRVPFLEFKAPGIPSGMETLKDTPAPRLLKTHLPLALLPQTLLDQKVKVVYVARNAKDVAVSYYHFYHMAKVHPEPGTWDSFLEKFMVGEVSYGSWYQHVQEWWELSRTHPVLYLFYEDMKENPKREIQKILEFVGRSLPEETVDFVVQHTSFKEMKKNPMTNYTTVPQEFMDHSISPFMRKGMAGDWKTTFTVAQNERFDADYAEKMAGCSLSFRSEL

In the case of `COc1cc2c(CCNC(C)=O)c[nH]c2cc1O` [6-hydroxymelatonin], the “K M of sulfoconjugation” value (hSULT1A1) is given as 18 µM.

For `NCCc1ccc(O)c(O)c1` [dopamine], the “K M of sulfoconjugation” value (hSULT1A1) is listed as 130 µM.

For `O=S(=O)(O)OCc1ccco1` [2-sulfoxymethylfuran], the “t 1/2” value [1] is listed as 20 s.

For `CC(=O)Nc1ccc(O)cc1` [paracetamol], the “K M of turnover” value (hSULT1A1; ref Adjei et al. [2008]) is listed as 2400 µM.

For `O=[N+]([O-])c1ccc(O)cc1` [p-nitrophenol], the “K M of sulfoconjugation” value (hSULT1A1) is listed as 3.0 µM.

In the case of `O=Cc1ccc(COS(=O)(=O)O)o1` [SMF, 5-sulfoxymethylfurfural], the stability [2] is given as “without any detectable degradation”, the half-life ([3]; in plasma at 37 °C) is given as 1.8 h and the half-life ([3]; in urine at 37 °C) is given as 2.1 h. The half-life ([3]; in water at 37 °C) was 1.9 h.
